Measurements published in ChEMBL document CHEMBL3612021, “Structure-kinetics relationships of Capadenoson derivatives as adenosine A1 receptor agonists” (Eur J Med Chem, 2015).

Target: T1, Adenosine receptor A1 (Homo sapiens) (UniProt P30542)
T1 sequence (whole entry): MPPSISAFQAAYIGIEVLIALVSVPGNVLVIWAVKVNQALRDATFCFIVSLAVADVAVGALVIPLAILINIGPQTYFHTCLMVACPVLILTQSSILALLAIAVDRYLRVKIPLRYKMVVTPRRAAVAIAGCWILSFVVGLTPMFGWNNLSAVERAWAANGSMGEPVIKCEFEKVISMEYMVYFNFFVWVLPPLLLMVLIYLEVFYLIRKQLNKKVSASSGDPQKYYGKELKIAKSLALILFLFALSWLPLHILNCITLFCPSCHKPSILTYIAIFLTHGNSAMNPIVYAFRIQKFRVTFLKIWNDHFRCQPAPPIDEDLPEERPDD
Test: Displacement of [3H]DPCPX from human adenosine A1 receptor expressed in CHO cell membranes at 1 uM by competition association assay

Compound	inhibition
N#Cc1c(N)nc(SCc2csc(-c3cccc(Cl)c3)n2)nc1-c1ccc2c(c1)OCO2	> 80%
N#Cc1c(NCCCc2ccccc2)nc(SCc2csc(-c3ccc(Cl)cc3)n2)nc1-c1ccc2c(c1)OCO2	< 80%
N#Cc1c(N)nc(SCc2csc(N3CCOCC3)n2)nc1-c1ccc2c(c1)OCO2	> 80%
N#Cc1c(NCc2ccccc2)nc(SCc2csc(-c3ccc(Cl)cc3)n2)nc1-c1ccc2c(c1)OCO2	< 80%
N#Cc1c(N)nc(SCc2csc(-c3ccc(Br)cc3)n2)c(C#N)c1-c1ccc(O)cc1	> 80%
COc1ccc(-c2c(C#N)c(N)nc(SCc3coc(-c4ccc(F)cc4)n3)c2C#N)cc1	> 80%
CCC(CC)Nc1nc(SCc2csc(-c3ccc(Cl)cc3)n2)nc(-c2ccc3c(c2)OCO3)c1C#N	< 80%
COc1ccc(-c2c(C#N)c(N)nc(SCc3csc(-c4ccccc4F)n3)c2C#N)cc1	> 80%
CC(C)(C)Nc1nc(SCc2csc(-c3ccc(Cl)cc3)n2)nc(-c2ccc3c(c2)OCO3)c1C#N	< 80%
N#Cc1c(N)nc(SCc2coc(-c3ccc(F)cc3)n2)c(C#N)c1-c1ccc(O)cc1	> 80%
N#Cc1c(NC2CCCC2)nc(SCc2csc(-c3ccc(Cl)cc3)n2)nc1-c1ccc2c(c1)OCO2	< 80%
N#Cc1c(NC2CCCCC2)nc(SCc2csc(-c3ccc(Cl)cc3)n2)nc1-c1ccc2c(c1)OCO2	< 80%
CCNCCN1CCN(C(=O)CCc2cccc(CSc3nc(N)c(C#N)c(-c4ccc(NC(C)=O)cc4)n3)n2)CC1	< 80%
N#Cc1c(N)nc(SCc2coc(-c3ccc(Cl)cc3)n2)c(C#N)c1-c1ccc(O)cc1	> 80%
Cc1ccc(-c2nc(SCc3csc(-c4ccc(Cl)cc4)n3)nc(N)c2C#N)cc1	< 80%
N#Cc1c(N)nc(SCc2csc(-c3ccc(F)cc3)n2)nc1-c1ccc2c(c1)OCO2	> 80%
CN(C)c1ccc(-c2nc(SCc3csc(-c4ccc(Cl)cc4)n3)nc(N)c2C#N)cc1	> 80%
N#Cc1c(N)nc(SCc2nc(-c3ccc(Cl)cc3)sc2Cl)c(C#N)c1-c1ccc2c(c1)OCO2	> 80%

Compound	inhibition
N#Cc1c(NCCCCc2ccccc2)nc(SCc2csc(-c3ccc(Cl)cc3)n2)nc1-c1ccc2c(c1)OCO2	< 80%
N#Cc1c(N)nc(SCc2coc(-c3ccc(F)cc3)n2)nc1-c1ccc2c(c1)OCO2	> 80%
CCNc1nc(SCc2csc(-c3ccc(Cl)cc3)n2)cc(-c2ccc3c(c2)OCO3)c1C#N	> 80%
N#Cc1c(N)nc(SCc2csc(-c3ccc(I)cc3)n2)nc1-c1ccc2c(c1)OCO2	> 80%
N#Cc1c(NCCc2ccccc2)nc(SCc2csc(-c3ccc(Cl)cc3)n2)nc1-c1ccc2c(c1)OCO2	< 80%
N#Cc1c(N)nc(SCc2csc(-c3ccccc3)n2)c(C#N)c1-c1ccc(O)cc1	> 80%
COc1ccc(-c2nc(SCc3coc(-c4cccc(F)c4)n3)nc(N)c2C#N)cc1	< 80%
N#Cc1c(N)nc(SCc2coc(-c3cccc(F)c3)n2)nc1-c1ccc2c(c1)OCO2	> 80%
N#Cc1c(N)nc(SCc2coc(-c3cccc(F)c3)n2)c(C#N)c1-c1ccc(O)cc1	> 80%
Cc1ccc(-c2nc(CSc3nc(N)c(C#N)c(-c4ccc5c(c4)OCO5)n3)cs2)cc1	> 80%
N#Cc1c(N)nc(SCc2csc(-c3ccc(C(F)(F)F)cc3)n2)nc1-c1ccc2c(c1)OCO2	> 80%
N#Cc1c(N)nc(SCc2csc(-c3ccc([N+](=O)[O-])cc3)n2)nc1-c1ccc2c(c1)OCO2	> 80%
N#Cc1c(N)nc(SCc2csc(-c3ccc(Cl)cc3)n2)nc1-c1ccc(OCCO)cc1	> 80%
N#Cc1c(N)nc(SCc2ccccc2[N+](=O)[O-])nc1-c1ccc2c(c1)OCO2	> 80%
N#Cc1c(N)nc(SCc2csc(N3CCOCC3)n2)c(C#N)c1-c1ccc(O)cc1	> 80%
N#Cc1c(N)nc(SCc2coc(-c3ccc(Cl)cc3)n2)nc1-c1ccc2c(c1)OCO2	> 80%
CC(=O)Nc1ccc(-c2nc(SCc3cccc(CCC(=O)N(C)CCN(C)C)n3)nc(N)c2C#N)cc1	< 80%
